According to patent publication US5006448A, “Photographic material and process” (Eastman Kodak Company, priority 1989, dated 1991):

Assay: Imbibition test of intrinsic inhibition strength of free inhibitors
Details: inhibitor prebath 5×10^-5 M, pH 10 carbonate buffer plus 0.1% dimethylformamide, 38° C., 2 min
Source text: Development inhibitors are generally released imagewise from an incorporated DIR compound during processing of the exposed photographic element. To evaluate the intrinsic inhibition strength of such inhibitors, independent of DIR release, an imbibition test is used. This involves imbibing an exposed film strip with a solution containing a given concentration of the free inhibitor to be tested. Nitrogen burst agitation of the imbibing solution improves the repeatability and effectiveness of inhibitor incorporation. The measured strength obtained by this test serves as an important guide in selecting inhibitors for desired photographic acutance improvements.
Film samples for imbibition testing of inhibitors were prepared having the following schematic layer structure and using a silver bromoiodide emulsion containing 6.4 mole % iodide (numerical values denote coating coverages in mg/m^2 and the silver halide values are for equivalent weights of silver):
Film strips cut from this coated element were exposed through a graduated density test object and a Kodak Wratten 99 (green) filter. Before development a strip was immersed at 38° C. under nitrogen agitation in each of the separate prebaths containing a test inhibitor at 5×10^-5 M concentration in a pH 10 carbonate buffer plus 0.1% dimethylformamide. As controls, each test set included a check strip which was immersed in a prebath containing no inhibitor and strips immersed in prebaths containing the comparison inhibitors phenylmercaptotetrazole (CI-1) and ethylmercaptotetrazole (CI-2). Photographic processing was carried out at 38° C. in the following steps:
The density of each test strip at this same exposure was noted and the inhibition strength number (I.S. No.) calculated using the equation: [formula]
Larger I.S. numbers for given inhibitors indicate stronger inhibition resulting in less dye density formed. Table IV lists these […], as well as calculated log P values, for a number of inhibitors released by compounds of the invention and for comparison inhibitors CI-1 through CI-8. It can be seen that, at equivalent partition coefficient (Log P) values, the inhibitors useful in the invention show higher inhibition strength than the controls. Alternatively, at approximately equal inhibition strength, inhibitors of the invention have lower partition coefficients.

| SMILES | Inhibition Strength No. |
| --- | --- |
| Sc1nnnn1-c1ccccc1 [CI-1, phenylmercaptotetrazole, reference compound] | 80 |
| CCn1nnnc1S [CI-2, reference compound] | 15 |
| CCCCCCCCc1nn[nH]n1 [CI-3, reference compound] | 18 |
| CCCCCCCCCSc1nn[nH]n1 [CI-4, reference compound] | 43 |
| CCCCCCN(CCCCCC)c1nn[nH]n1 [CI-5, reference compound] | 52 |
| CCCCCOc1ccc(-c2nn[nH]n2)cc1 [CI-6, reference compound] | 16 |
| O=C(Oc1ccccc1)c1ccc2[nH]nnc2c1 [CI-7, reference compound] | 40 |
| CCOc1cc2nn[nH]c2cc1OCC [CI-8, reference compound] | 35 |
| CCCCCCCCCSCc1nn[nH]n1 [Compound I-5] | 95 |
| CCCCCCCCSCCc1nn[nH]n1 [Compound I-21] | 95 |
| CCCCCCCSCCCc1nn[nH]n1 [Compound I-22] | 94 |
| CCCCCCSCCCc1nn[nH]n1 [Compound I-23] | 77 |
| CCCSCCCc1nn[nH]n1 [Compound I-24] | 20 |
| CCCCSCCCOc1ccc(-c2nn[nH]n2)cc1 [Compound I-26] | 67 |
| CCCCSCCN(CCSCCCC)c1nn[nH]n1 [Compound I-37] | 66 |
| CCCCSCCCCCCc1nn[nH]n1 [Compound I-51] | 83 |
| CCSCCSCCCc1nn[nH]n1 [Compound I-134] | 77 |
| CCCSCCSCc1ccccc1-c1nn[nH]n1 [Compound I-136] | 84 |
| CCCSCCOC(=O)c1ccc2[nH]nnc2c1 [Compound I-137] | 86 |
| CCCSc1ccc2[nH]nnc2c1 [Compound I-138] | 69 |
| CSCCSc1ccc2[nH]nnc2c1 [Compound I-139, 6'-(2-methylthioethylthio)benzotriazole] | 88 |
